The values that follow are results of earlier work, collected in EP4406531A1, “DOSAGE FORM FOR INTRA-ARTICULAR INJECTION […] AN […] IN THE TREATMENT OF CRYSTAL-AND NON-CRYSTAL […] IN[…]” (PK MED, priority 2023, dated 2024).

For the data set the following is noted: literature (Niel et al. 2006).

Regarding `COc1cc2c(c(OC)c1OC)-c1ccc(OC)c(=O)cc1[C@@H](NC(C)=O)CC2` [colchicine, N-[(7S)-1,2,3,10-tetramethoxy-9-oxo-6,7-dihydro-5H-benzo[a]heptalen-7-yl]acetamide], the lethal dose is listed as 0.8 mg/kg and the toxicity limit is on record as 0.1 mg/kg.
